The values below come from US7550485B2, “Substituted N-heterocycle derivatives and methods of their use” (Wyeth, priority 2003, dated 2009).

The target in this assay is T1, hNET (Homo sapiens, UniProt P23975).
T1 construct: expressed in transfected cells
As to the kind of experiment: Norepinephrine (NE) uptake assay in MDCK-Net6 cells stably transfected with human hNET. Conditions: [3H]NE uptake; for inhibition at 1 µM: MDCK-Net6, 1 μM test compound; for EC50: test range 1 to 10,000 nM. It counts as cell-based. An outline of the steps:
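MDCK-Net6 cells preincubated 20 min at 37 °C with compound (1 to 10,000 nM) in HEPES buffer pH 7.4 with pargyline and ascorbate, then 5 min [3H]NE uptake (120 nM final). Lysed cells counted by scintillation; 1 μM desipramine defined minimum uptake; EC50 from logistic fit of pooled data.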

For orientation: inhibition means the percentage by which the read-out fell short of the control. A lower inhibition goes with little suppression. Broadly, the EC50 is the concentration at which the effect is half-maximal. A higher EC50 goes with a need for much substance.

Molecules are shown by their SMILES. Counter-ions that a name gives are not always drawn.

T1 sequence (P23975 whole entry): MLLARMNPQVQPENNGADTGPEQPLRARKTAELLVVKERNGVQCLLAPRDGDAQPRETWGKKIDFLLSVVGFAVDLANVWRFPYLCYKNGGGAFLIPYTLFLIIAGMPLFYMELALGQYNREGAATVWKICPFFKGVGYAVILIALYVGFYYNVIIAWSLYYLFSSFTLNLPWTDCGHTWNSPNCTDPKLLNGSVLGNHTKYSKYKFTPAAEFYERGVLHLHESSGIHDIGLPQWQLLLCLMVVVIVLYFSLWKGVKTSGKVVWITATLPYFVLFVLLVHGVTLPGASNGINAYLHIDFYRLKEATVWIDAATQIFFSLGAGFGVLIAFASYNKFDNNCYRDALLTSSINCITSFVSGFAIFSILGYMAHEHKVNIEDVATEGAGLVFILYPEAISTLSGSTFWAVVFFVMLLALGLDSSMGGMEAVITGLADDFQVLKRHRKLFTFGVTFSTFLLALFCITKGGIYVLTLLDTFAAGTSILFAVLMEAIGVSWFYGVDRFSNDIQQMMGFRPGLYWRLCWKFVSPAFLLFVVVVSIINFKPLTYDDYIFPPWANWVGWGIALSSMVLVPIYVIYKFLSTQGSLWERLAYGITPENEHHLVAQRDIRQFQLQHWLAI

`N[C@@H]1CCCN(CC(c2ccc(OCc3ccccc3)c(Cl)c2)C2(O)CCCCC2)C1` (stereo partly drawn) [Example 193, 1-{2-[(3R)-3-aminopiperidin-1-yl]-1-[4-(benzyloxy)-3-chlorophenyl]ethyl}cyclohexanol dihydrochloride] gave an inhibition at 1 µM of 87.2%.
The compound `OC1(C(CN2CCC(N3CCCCC3)CC2)c2ccc(OC(F)(F)F)cc2)CCCCC1` (stereo not drawn) [Example 284, 1-{2-(1,4′-bipiperidin-1′-yl)-1-[4-(trifluoromethoxy)phenyl]ethyl}cyclohexanol dihydrochloride] yielded an inhibition at 1 µM of 91.1%.
Take `OC1(C(CN2CCC(N3CCCC3)CC2)c2cccc(C(F)(F)F)c2)CCCCC1` (stereo not drawn) [Example 26, 1-{2-(4-pyrrolidin-1-ylpiperidin-1-yl)-1-[3-(trifluoromethyl)phenyl]ethyl}cyclohexanol dihydrochloride]: the inhibition at 1 µM was found to be 84% and the response was half-maximal at 200 nM (EC50).
Compound `CN[C@H]1CCCN(CC(c2cccc(OC(F)(F)F)c2)C2(O)CCCCC2)C1` (stereo partly drawn) [Example 189, 1-{2-[(3S)-3-(methylamino)piperidin-1-yl]-1-[3-(trifluoromethoxy)phenyl]ethyl}cyclohexanol dihydrochloride] gave an inhibition at 1 µM of 67.9%.
`CNC1CCN(CC(c2cccc(Cl)c2)C2(O)CCCCC2)CC1` (stereo not drawn) [Example 17, 1-{1-(3-chlorophenyl)-2-[4-(methylamino)piperidin-1-yl]ethyl}cyclohexanol dihydrochloride] registered an inhibition at 1 µM of 88% and a half-maximal effective concentration (EC50) of 91 nM.
Compound `COc1cc(C(CN2CCC(N(C)C)CC2)C2(O)CCCCC2)ccc1OCc1ccccc1` (stereo not drawn) [Example 451, 1-{1-[4-(benzyloxy)-3-methoxyphenyl]-2-[4-(dimethylamino)piperidin-1-yl]ethyl}cyclohexanol dihydrochloride] came in with an inhibition at 1 µM of 79%.
Take `NC1CCN(CC(c2ccc3ccccc3c2)C2(O)CCCCC2)CC1` (stereo not drawn) [Example 32, 1-[2-(4-aminopiperidin-1-yl)-1-(2-naphthyl)ethyl]cyclohexanol dihydrochloride]: the inhibition at 1 µM stood at 69% and it took 170 nM to reach a half-maximal effect (EC50).
Take `N[C@H]1CCN(CC(c2ccc(OCc3ccccc3)c(Cl)c2)C2(O)CCCCC2)C1` (stereo partly drawn) [Example 210, 1-{2-[(3S)-3-aminopyrrolidin-1-yl]-1-[4-(benzyloxy)-3-chlorophenyl]ethyl}cyclohexanol dihydrochloride]: 1 µM produced 88.8% inhibition.
`COc1ccc2cc(C(CN3CCC(N4CCCC4)CC3)C3(O)CCCCC3)ccc2c1` (stereo not drawn) [Example 345, 1-[1-(6-methoxy-2-naphthyl)-2-(4-pyrrolidin-1-ylpiperidin-1-yl)ethyl]cyclohexanol dihydrochloride]: testing at 1 µM gave an inhibition of 65% and the 50% effective concentration (EC50) amounted to 530 nM.
`N[C@H]1CCN(CC(c2ccc3ccccc3c2)C2(O)CCCCC2)C1` (stereo partly drawn) [Example 204, 1-[2-[(3S)-3-aminopyrrolidin-1-yl]-1-(2-naphthyl)ethyl]cyclohexanol dihydrochloride] gave an inhibition at 1 µM of 70.4%.
The compound `CNC1CCN(CC(c2cccc(Br)c2)C2(O)CCCCC2)CC1` (stereo not drawn) [Example 19, 1-{1-(3-bromophenyl)-2-[4-(methylamino)piperidin-1-yl]ethyl}cyclohexanol dihydrochloride] came in with an inhibition at 1 µM of 88% and a concentration giving a half-maximal response (EC50) of 88 nM.
On to `N[C@@H]1CCN(CC(c2cccc(C(F)(F)F)c2)C2(O)CCCCC2)C1` (stereo partly drawn) [Example 224, 1-{2-[(3R)-3-aminopyrrolidin-1-yl]-1-[3-(trifluoromethyl)phenyl]ethyl}cyclohexanol dihydrochloride], for which the inhibition at 1 µM amounted to 27.5%.
Compound `NC1CCN(CC(c2cccc(C(F)(F)F)c2)C2(O)CCCCC2)CC1` (stereo not drawn) [Example 39, 1-{2-(4-aminopiperidin-1-yl)-1-[3-(trifluoromethyl)phenyl]ethyl}cyclohexanol dihydrochloride] gave an inhibition at 1 µM of 56%.
For `OC1(C(CN2CCC(N3CCOCC3)CC2)c2cccc(OC(F)(F)F)c2)CCCCC1` (stereo not drawn) [Example 361, 1-{2-(4-morpholin-4-ylpiperidin-1-yl)-1-[3-(trifluoromethoxy)phenyl]ethyl}cyclohexanol dihydrochloride], the inhibition at 1 µM came to 67% and the concentration for a half-maximal effect (EC50) was found to be 640 nM.
In the case of `CN[C@@H]1CCN(CC(c2ccc(OCc3ccccc3)c(Cl)c2)C2(O)CCCCC2)C1` (stereo partly drawn) [Example 385, 1-{1-[4-(benzyloxy)-3-chlorophenyl]-2-[(3R)-3-(methylamino)pyrrolidin-1-yl]ethyl}cyclohexanol dihydrochloride], 1 µM produced 65% inhibition and a half-maximal response (EC50) required 270 nM.
Regarding `N[C@@H]1CCN(CC(c2cccc(Cl)c2)C2(O)CCCCC2)C1` (stereo partly drawn) [Example 201, 1-[2-[(3R)-3-aminopyrrolidin-1-yl]-1-(3-chlorophenyl)ethyl]cyclohexanol dihydrochloride], 1 µM produced 37.5% inhibition.
The compound `OC1([C@H](CN2CCC(N3CCCC3)CC2)c2cccc(OC(F)(F)F)c2)CCCCC1` [Example 365, 1-{(1S)-2-(4-pyrrolidin-1-ylpiperidin-1-yl)-1-[3-(trifluoromethoxy)phenyl]ethyl}cyclohexanol dihydrochloride] displayed an inhibition at 1 µM of 94% and an EC50 of 78 nM.
`CN(C)C1CCN(CC(c2cccc(C(F)(F)F)c2)C2(O)CCCCC2)CC1` (stereo not drawn) [Example 321, 1-{2-[4-(dimethylamino)piperidin-1-yl]-1-[3-(trifluoromethyl)phenyl]ethyl}cyclohexanol dihydrochloride] had an inhibition at 1 µM of 66.1%.
`COc1ccc(C(CN2CCC(N3CCCCC3)CC2)C2(O)CCCCC2)cc1Br` (stereo not drawn) [Example 8, 1-[2-(1,4′-bipiperidin-1′-yl)-1-(3-bromo-4-methoxyphenyl)ethyl]cyclohexanol dihydrochloride] gave an inhibition at 1 µM of 95% and a concentration for a half-maximal effect (EC50) of 140 nM.
In the case of `CNC1CCN(CC(c2cccc(C(F)(F)F)c2)C2(O)CCCCC2)C1` (stereo in doubt) [Example 223, 1-{2-[(3R)-3-(methylamino)pyrrolidin-1-yl]-1-[3-(trifluoromethyl)phenyl]ethyl}cyclohexanol dihydrochloride], the “% Inhibition @ 1 μM (hNET)” value (1 μM test compound, dihydrochloride, 1 µM) turned out to be 41.2%.
The compound `N[C@H]1CCN(CC(c2cccc(C(F)(F)F)c2)C2(O)CCCCC2)C1` (stereo partly drawn) [Example 221, 1-{2-[(3S)-3-aminopyrrolidin-1-yl]-1-[3-(trifluoromethyl)phenyl]ethyl}cyclohexanol dihydrochloride] gave an inhibition at 1 µM of 63.9%.
`CN[C@H]1CCN(CC(c2ccc(OCc3ccccc3)cc2)C2(O)CCCCC2)C1` (stereo partly drawn) [Example 212, 1-{1-[4-(benzyloxy)phenyl]-2-[(3S)-3-(methylamino)pyrrolidin-1-yl]ethyl}cyclohexanol dihydrochloride] had an inhibition at 1 µM of 84.8%.
Under “MDCK-Net6, 10 μM test compound (stated in cell)”, `CN(C)[C@H]1CCN(CC(c2cccc(OC(F)(F)F)c2)C2(O)CCCCC2)C1` (stereo partly drawn) [Example 217, 1-{2-[(3S)-3-(dimethylamino)pyrrolidin-1-yl]-1-[3-(trifluoromethoxy)phenyl]ethyl}cyclohexanol dihydrochloride] displayed an inhibition at 10 µM of 84.2%.
In the case of `CN[C@@H]1CCN(CC(c2ccc(OCc3ccccc3)cc2)C2(O)CCCCC2)C1` (stereo partly drawn) [Example 382, 1-{1-[4-(benzyloxy)phenyl]-2-[(3R)-3-(methylamino)pyrrolidin-1-yl]ethyl}cyclohexanol dihydrochloride], the inhibition at 1 µM was 50%.
